# Assay results as given in patent US20070098735A1, “Methods for the Elimination of Pathogens and Other Particulate Agents” (priority 2005, published 2007).
# Assays:
# [1] = system: CD4+ T cells purified from spleens of DO 11.10 mice; experiment: Proliferation of CD4+ T cells after MHC-II presentation of OVA-coated yeast by macrophages (FACS); assay type: cell-based; details: macrophages treated with HSP70 100 μg/ml and OVA-coated yeast
# Experimental: Proliferation of CD4+ T cells and INF-γ (interferon gamma) release. Unlabeled S. cerevisiae (80 μg) was incubated with excess chicken ovary albumin (OVA) at 37° C. for 1 hour and washed repeatedly to eliminate free OVA protein. S. cerevisiae-OVA complexes (OVA-coated yeast) were administered to macrophages treated with or without HSP70. Macrophages were then washed and irradiated at 12,000 rads and assessed for viability by trypan blue exclusion. Subsequently, they were co-cultured with CD4+ T lymphocytes that were purified from spleens of DO 11.10 mice and labeled with carboxyfluoroscein succinimidyl ester (CSFE). […] Following the 48-hour incubation, proliferation of CD4+ cells was determined with FACS and IFN-γ release in the supernatant was tested by enzyme-linked immunosorbent assay (ELISA; Pierce, Ill.).
# Alexafluor labeled S. cerevisiae were coated with whole ovalbumin (OVA) protein 1 mg/ml by co-incubation at 37° C. for 20 minutes and washed until free OVA protein was removed (washes were tested by gel electrophoresis using SDS-PAGE and immunoblotting). […] Resultant proliferation of the CSFE-labeled CD4+ was measured by FACS as an indirect measure of the amount of OVA protein processed and its peptide epitope presented in context of MHC-II. […]
# [2] = system: full thickness wounds of naïve mice; experiment: Adoptive transfer of pre-treated RAW 264.7 macrophages into wounded mice, wound closure; assay type: in vivo
# Experimental: Macrophage Cell Culture, Pre-treatment, and Adoptive Transfer. RAW 264.7 macrophages (ATCC) were grown as described by ATCC. Cells were harvested by gently scraping them from the cell culture flasks, centrifuged and washed once in cultured grade PBS. […] They were then washed 3 times with PBS, and were re-suspended to achieve a concentration of 400,000, 40,000, or 4,000 cells per 0.5 ml PBS. Adoptive transfer of these cells was performed by subcutaneous injections in the nape of the neck using a 25-gauge needle in mice that were wounded as previously described. Adoptive transfers were given on days 0, 2 and 4 post-operatively.
# Macrophages were treated in vitro with either HSPs or non-HSP controls and transferred into naïve wounded mice (as described in Materials and Methods) to test if HSPs could in part mediate some of their activity through macrophages. […] Data is plotted as average percent wound closure ±SEM on day 2. *P values were obtained using the Student's t-test by comparing HSP treatment to all of the non-HSP control treatments. The least significant P value was reported.
# Titratability of adoptive transfer was examined by transferring 4,000, 40,000 or 400,000 macrophages pre-treated as described in Materials and Methods.
# [3] = system: Murine macrophage lines (RAW264.7, J774.A1 or RAW264NO-); experiment: Phagocytosis assay in vitro (uptake of Alexa Fluor 488-labeled particles); assay type: cell-based
# In short: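 Macrophages in serum-free EMEM took up Alexa Fluor 488 beads, yeast or E. coli (40 particles/cell) for 60 min at 37 °C with or without HSPs, LPS or control proteins. Trypan blue (0.8 mg/ml, 60 s) quenched external fluorescence, and intracellular signal was read as relative mean fluorescence intensity. Data are from 3 experiments, 3 wells/group, compared with medium alone by Student's t test.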
substance,measurement,setting,value
"HSP70: heat shock protein purified from murine livers, prepared as a complex with endogenous peptide",CD4+ proliferation,[1],20%
same,titratability of adoptive transfer by cell number,"[2]; 4,000, 40,000 or 400,000 pre-treated macrophages",Increasing the number of HSP pretreated cells increases the percentage of wound closure
same,early wound closure after adoptive transfer of pre-treated macrophages,"[2]; 400,000 macrophages pre-treated at 30 μg/dose",significantly accelerated early wound closure
same,wound healing on day 2 after adoptive transfer of pre-treated macrophages,"[2]; 400,000 macrophages pre-treated at 30 μg/dose, day 2 post surgery",62%
same,rank as stimulator of phagocytosis among the agents tested,[3]; HSP70 100 μg/ml vs TLR7-ligands 1 mg/ml,most potent stimulator of phagocytosis
same,uptake of microbial or non-microbial materials as compared to control proteins or buffer,"[3]; HSPs 100 μg/ml, P<0.01 vs medium alone",increase in uptake
same,increase in phagocytosis,"[3]; RAW264.7, labeled S. cerevisiae, HSP70 100 μg/ml, 60 minutes at 37° C.",4-6 times the basal rate
same,uptake of yeast by macrophages pre-treated with HSP and washed,[3]; compared with HSP and yeast administered simultaneously,enhanced the uptake of yeast to the same extent
same,doses unable to stimulate uptake,[3]; dose range 10-100 μg/ml,less than 20 μg/ml
same,quantity of phagocytosis at higher doses,[3]; doses up to 200 μg/ml,did not result in any further increase in the quantity of phagocytosis
same,dose at which the peak effect occurred,[3]; plateau through 100 μg/ml,40 µg/mL
same,ability to enhance phagocytosis,"[3]; serum-free conditions, 1 hour, HSP70 100 μg/ml, LPS 25 ng-1 μg/ml, heating 100° C. for 20 minutes",able to enhance phagocytosis equally whether in the presence or absence of serum
same,time for antigen uptake to reach a plateau,[3]; time-titration 10-90 minutes,≤ 45 min
